Like-named read-outs stand apart in the source and are kept apart here.
How the values were obtained:
[1] = ester bond, 18-membered ring, EDCI/HOBt/DIEA, 25.0 °C
[2] = ester bond, EDCI/HOBt/DIPEA, 25.0 °C, 16.0 h
[3] = system: SW1573; conditions: cited from earlier work
[4] = from CCn1c(-c2cccnc2[C@H](C)OC)c(CC(C)(C)CO)c2cc(-c3cc(C[C@H](NC(=O)OC(C)(C)C)C(=O)N4CCC[C@@H](C(=O)O)N4)cc(O[Si](C(C)C)(C(C)C)C(C)C)c3)ccc21, DCM, 15.3 mM

## CCn1c(-c2cccnc2[C@H](C)OC)c2c3cc(ccc31)-c1cc(cc(O[Si](C(C)C)(C(C)C)C(C)C)c1)C[C@H](NC(=O)OC(C)(C)C)C(=O)N1CCC[C@H](N1)C(=O)OCC(C)(C)C2
[1]; [4]
  ring closure, isolated yield: 42%
[2]; [4]
  ring closure, yield of all isomers: 42%

## CCn1c(-c2cccnc2[C@H](C)OC)c2c3cc(ccc31)-c1cc(CF)cc(c1)C[C@H](NC(=O)OC(C)(C)C)C(=O)N1CCC[C@H](N1)C(=O)OCC(C)(C)C2
[1]; from CCn1c(-c2cccnc2[C@H](C)OC)c(CC(C)(C)CO)c2cc(-c3cc(CF)cc(C[C@H](NC(=O)OC(C)(C)C)C(=O)N4CCC[C@@H](C(=O)O)N4)c3)ccc21, DCM, 23.7 mM
  ring closure, isolated yield: 65%
[2]; from CCn1c(-c2cccnc2[C@H](C)OC)c(CC(C)(C)CO)c2cc(-c3cc(CF)cc(C[C@H](NC(=O)OC(C)(C)C)C(=O)N4CCC[C@@H](C(=O)O)N4)c3)ccc21, DCM, 23.73 mM
  ring closure, yield of all isomers: 65%

## C=CC(=O)N1CCN(c2nc(=O)n(-c3c(C)ccnc3C(C)C)c3nc(-c4c(O)cccc4F)c(F)cc23)[C@@H](C)C1 [AMG510]
[3]
  sensitivity of cell line SW1573 to inhibitor: insensitive

## CCn1c(-c2cc(N3CCN(C(=O)OCc4ccccc4)CC3)cnc2[C@H](C)OC)c2c3cc(ccc31)-c1csc(n1)C[C@H](NC(=O)OC(C)(C)C)C(=O)N1CCC[C@H](N1)C(=O)OCC(C)(C)C2
[1]; from CCn1c(-c2cc(N3CCN(C(=O)OCc4ccccc4)CC3)cnc2[C@H](C)OC)c(CC(C)(C)CO)c2cc(-c3csc(C[C@H](NC(=O)OC(C)(C)C)C(=O)N4CCC[C@@H](C(=O)O)N4)n3)ccc21, MeCN, 10.3 mM
  ring closure, isolated yield: 54.9%
[2]; from CCn1c(-c2cc(N3CCN(C(=O)OCc4ccccc4)CC3)cnc2[C@H](C)OC)c(CC(C)(C)CO)c2cc(-c3csc(C[C@H](NC(=O)OC(C)(C)C)C(=O)N4CCC[C@@H](C(=O)O)N4)n3)ccc21, MeCN, 10.34 mM
  ring closure, yield of all isomers: 54.9%
